Laboratory results: paper PMC9730799, “Elucidation of the interactome of the sucrose transporter StSUT4: sucrose transport is connected to ethylene and calcium signalling” (Journal of Experimental Botany, 2022)

Molecular target: T1, StSUT4 (Solanum tuberosum, UniProt Q9FV92)
T1 construct: gene SUT4; StSUT4 cDNA in pDR196, expressed in yeast cells
T1 sequence (Q9FV92 1-500): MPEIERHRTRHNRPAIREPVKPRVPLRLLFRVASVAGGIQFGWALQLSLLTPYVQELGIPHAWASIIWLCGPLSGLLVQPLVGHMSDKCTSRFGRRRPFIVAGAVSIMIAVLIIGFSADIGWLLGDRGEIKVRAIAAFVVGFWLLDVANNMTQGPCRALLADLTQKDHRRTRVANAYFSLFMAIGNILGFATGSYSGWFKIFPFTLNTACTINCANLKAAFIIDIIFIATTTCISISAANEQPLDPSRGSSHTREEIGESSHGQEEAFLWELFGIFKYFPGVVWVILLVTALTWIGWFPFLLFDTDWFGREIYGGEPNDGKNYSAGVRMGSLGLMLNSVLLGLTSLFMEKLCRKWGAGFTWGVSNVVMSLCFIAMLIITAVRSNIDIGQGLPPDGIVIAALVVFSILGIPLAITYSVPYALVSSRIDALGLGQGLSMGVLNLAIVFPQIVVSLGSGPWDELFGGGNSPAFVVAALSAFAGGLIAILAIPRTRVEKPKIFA
Test: competition with esculin uptake in yeast, fluorescence
Format: cell-based
Details: 8 mM esculin, pH 5.0, 20 mM unlabelled sucrose

OC[C@H]1O[C@@](CO)(O[C@H]2O[C@H](CO)[C@@H](O)[C@H](O)[C@H]2O)[C@@H](O)[C@@H]1O [sucrose]
% inhibition at 20 mM: ~ almost 50%
